What follows are substances tested against T1, RANTES/MIP-1α chemokine receptor (CCR1) in THP-1 cell membranes (Homo sapiens, UniProt P32246) (assay: Receptor binding assay: 125I-RANTES or 125I-MIP-1α binding to THP-1 cell membranes). Details: inhibitor concentration required for 50% inhibition of specific binding; 125I-RANTES or 125I-MIP-1α as ligand, THP-1 cell membranes; read-out: IC50.
T1 construct: Membranes were prepared from THP-1 cells (ATCC #TIB202); host or cells: THP-1 cells (membrane preparation)
T1 sequence (P32246 1-355): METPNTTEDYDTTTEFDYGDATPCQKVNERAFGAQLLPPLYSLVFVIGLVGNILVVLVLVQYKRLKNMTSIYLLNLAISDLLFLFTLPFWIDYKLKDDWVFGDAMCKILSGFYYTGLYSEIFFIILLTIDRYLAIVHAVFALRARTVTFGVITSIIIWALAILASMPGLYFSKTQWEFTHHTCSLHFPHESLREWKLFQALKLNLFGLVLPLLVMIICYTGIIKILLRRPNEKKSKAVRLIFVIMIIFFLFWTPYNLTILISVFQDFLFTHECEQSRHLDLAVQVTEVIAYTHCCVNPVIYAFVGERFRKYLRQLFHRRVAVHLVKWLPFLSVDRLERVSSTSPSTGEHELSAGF
Method: Membranes were prepared from THP-1 cells (ATCC #TIB202). Cells were harvested by centrifugation, washed twice with PBS (phosphate-buffered saline), and the cell pellets were frozen at −70 to −85° C. The frozen pellet was thawed in ice-cold lysis buffer consisting of 5 mM HEPES (N-2-hydroxyethylpiperazine-N′-2-ethane-sulfonic acid) pH 7.5, 2 mM EDTA (ethylenediaminetetraacetic acid), 5 μg/ml each aprotinin, leupeptin, and chymostatin (protease inhibitors), and 100 μg/ml PMSF (phenyl methane sulfonyl fluoride—also a protease inhibitor), at a concentration of 1 to 5×10^7 cells/ml. This procedure results in cell lysis. The suspension was mixed well to resuspend all of the frozen cell pellet. Nuclei and cell debris were removed by centrifugation of 400×g for 10 minutes at 4° C. The supernatant was transferred to a fresh tube and the membrane fragments were collected by centrifugation at 25,000×g for 30 minutes at 4° C. The supernatant was aspirated and the pellet was resuspended in freezing buffer consisting of 10 mM HEPES pH 7.5, 300 mM sucrose, 1 μg/ml each aprotinin, leupeptin, and chymostatin, and 10 μg/ml PMSF (approximately 0.1 ml per each 10^8 cells). All clumps were resolved using a minihomogenizer, and the total protein concentration was determined using a protein assay kit (Bio-Rad, Hercules, Calif., cat #500-0002). The membrane solution was then aliquoted and frozen at −70 to −85° C. until needed.
Binding Assays utilized the membranes described above. […] The binding reactions were performed in 60 to 100 μl of a binding buffer consisting of 10 mM HEPES pH 7.2, 1 mM CaCl2, 5 mM MgCl2, and 0.5% BSA (bovine serum albumin), for 60 min at room temperature. The binding reactions were terminated by harvesting the membranes by rapid filtration through glass fiber filters (GF/B or GF/C, Packard) which were presoaked in 0.3% polyethyleneimine. The filters were rinsed with approximately 600 μl of binding buffer containing 0.5 M NaCl, dried, and the amount of bound radioactivity was determined by scintillation counting in a Topcount beta-plate counter.
Specific binding is defined as the total binding minus the non-specific binding; non-specific binding is the amount of cpm still detected in the presence of excess unlabeled Rantes or MIP-1α.
“4-(2-Chlorophenyl)-1-[3-(5,11-dihydro-7-methoxy[1]benzoxepino[2,3-b]pyridin-5-ylidene)propyl]piperidin-4-ol [Example 76]” showed an IC50 of less than 10 µM. For “4-(3,4-Dichlorophenyl)-1-[3-(5,11-dihydro-7-methoxy[1]benzoxepino[2,3-b]pyridin-5-ylidene)propyl]piperidin-4-ol [Example 79]”, the IC50 was less than 1 µM. Work on “4-(3,4-difluorophenyl)-1-[3-(5,11-dihydro-7-methoxy[1]benzoxepino[2,3-b]pyridin-5-ylidene)propyl]piperidin-4-ol [Example 144]” yielded an IC50 of less than 1 µM. For “4-(3,5-dichlorophenyl)-1-[3-(5,11-dihydro-7-methoxy[1]benzoxepino[2,3-b]pyridin-5-ylidene)propyl]piperidin-4-ol [Example 146]”, the IC50 was greater than 10 µM. With “4-(3-Chlorophenyl)-1-[3-(5,11-dihydro-7-methoxy[1]benzoxepino[2,3-b]pyridin-5-ylidene)propyl]piperidin-4-ol [Example 75]” the IC50 was less than 10 µM. For “4-(4-Bromophenyl)-1-[3-(5,11-dihydro-7-methoxy[1]benzoxepino[2,3-b]pyridin-5-ylidene)propyl]piperidin-4-ol [Example 60]”, the IC50 was less than 1 µM. For “4-(4-Chlorophenyl)-1-[3-(5,11-dihydro [1]benzoxepino[2,3-b]pyridin-5-ylidene)propyl]piperidin-4-ol [Example 53]”, the IC50 was less than 1 µM. In the case of “4-(4-Chlorophenyl)-1-[3-(5,11-dihydro-7-(1-butoxy)carbonyl-[1]benzoxepino[2,3-b]pyridin-5-ylidene) propyl]piperidine-4-ol [Example 427]”, the IC50 is reported as less than 1 µM. “4-(4-Chlorophenyl)-1-[3-(5,11-dihydro-7-(1-cyclohexyloxycarbonyloxy)ethyloxycarbonyl[1]benzoxepino[2,3-b]pyridin-5-ylidene)propyl]piperidin-4-ol dihydrochloride [Example 306]” showed an IC50 of less than 1 µM. Substance “4-(4-Chlorophenyl)-1-[3-(5,11-dihydro-7-(1-ethoxycarbonyl-1-methylethyl)oxy[1]benzoxepino[2,3-b]pyridin-5-ylidene)propyl]piperidin-4-ol [Example 138]” has an IC50 of less than 1 µM. With “4-(4-Chlorophenyl)-1-[3-(5,11-dihydro-7-(1-ethoxycarbonyl-1-methylethyl)oxy[1]benzoxepino[2,3-b]pyridin-5-ylidene)propyl]piperidine [Example 158]” the IC50 was less than 1 µM. Work on “4-(4-Chlorophenyl)-1-[3-(5,11-dihydro-7-(1-piperidino)methyl[1]benzoxepino[2,3-b]pyridin-5-ylidene)propyl]piperidin-4-ol [Example 277]” yielded an IC50 of less than 1 µM. For “4-(4-Chlorophenyl)-1-[3-(5,11-dihydro-7-(1-propoxy)carbonyl-[1]benzoxepino[2,3-b]pyridin-5-ylidene) propyl]piperidine-4-ol [Example 426]”, the IC50 was less than 1 µM. With “4-(4-Chlorophenyl)-1-[3-(5,11-dihydro-7-(1-pyrrolidino)methyl [1]benzoxepino[2,3-b]pyridin-5-ylidene)propyl]piperidin-4-ol [Example 279]” the IC50 was less than 1 µM. Substance “4-(4-Chlorophenyl)-1-[3-(5,11-dihydro-7-(2,3-dihydroxy)propyl[1]benzoxepino[2,3-b]pyridin-5-ylidene)propyl]piperidin-4-ol [Example 290]” has an IC50 of less than 1 µM. For “4-(4-Chlorophenyl)-1-[3-(5,11-dihydro-7-(2-hydroxy)ethyl[1]benzoxepino[2,3-b]pyridin-5-ylidene)propyl]piperidin-4-ol [Example 280]”, the IC50 was less than 1 µM. Work on “4-(4-Chlorophenyl)-1-[3-(5,11-dihydro-7-(2-hydroxyethyl)oxy[1]benzoxepino[2,3-b]pyridin-5-ylidene)propyl]piperidin-4-ol [Example 51]” yielded an IC50 of less than 1 µM. Substance “4-(4-Chlorophenyl)-1-[3-(5,11-dihydro-7-(2-morpholinoethyl)oxy[1]benzoxepino[2,3-b]pyridin-5-ylidene)propyl]piperidin-4-ol [Example 52]” has an IC50 of less than 1 µM. For “4-(4-Chlorophenyl)-1-[3-(5,11-dihydro-7-(2-propoxy)carbonyl-[1]benzoxepino[2,3-b]pyridin-5-ylidene) propyl]piperidine-4-ol [Example 428]”, the IC50 was less than 1 µM. “4-(4-Chlorophenyl)-1-[3-(5,11-dihydro-7-(ethoxycarbonylmethyl)-oxycarbonyl-[1]benzoxepino[2,3-b]pyridin-5-ylidene) propyl]piperidine-4-ol [Example 424]” gave an IC50 of less than 1 µM. With “4-(4-Chlorophenyl)-1-[3-(5,11-dihydro-7-cyclohexyloxycarbonyl-[1]benzoxepino[2,3-b]pyridin-5-ylidene)propyl]piperidine-4-ol [Example 425]” the IC50 was less than 1 µM. For “4-(4-Chlorophenyl)-1-[3-(5,11-dihydro-7-cyclopentyl-oxycarbonyl-[1]benzoxepino[2,3-b]pyridin-5-ylidene) propyl]piperidine-4-ol [Example 429]”, the IC50 was less than 1 µM. Substance “4-(4-Chlorophenyl)-1-[3-(5,11-dihydro-7-dimethylaminocarbonylmethyloxy[1]benzoxepino[2,3-b]pyridin-5-ylidene)propyl]piperidin-4-ol [Example 134]” has an IC50 of less than 1 µM. “4-(4-Chlorophenyl)-1-[3-(5,11-dihydro-7-dimethylaminocarbonylmethyloxy[1]benzoxepino[2,3-b]pyridin-5-ylidene)propyl]piperidine [Example 155]” was tested, and the IC50 was less than 1 µM. Work on “4-(4-Chlorophenyl)-1-[3-(5,11-dihydro-7-ethoxy [1]benzoxepino[2,3-b]pyridin-5-ylidene)propyl]piperidin-4-ol [Example 46]” yielded an IC50 of less than 1 µM. For “4-(4-Chlorophenyl)-1-[3-(5,11-dihydro-7-ethoxy[1]benzoxepino[2,3-b]pyridin-5-ylidene)propyl]piperidine [Example 152]”, the IC50 was less than 1 µM. “4-(4-Chlorophenyl)-1-[3-(5,11-dihydro-7-ethoxycarbonyl-[1]benzoxepino[2,3-b]pyridin-5-ylidene) propyl]piperidine-4-ol [Example 423]” gave an IC50 of less than 1 µM. “4-(4-Chlorophenyl)-1-[3-(5,11-dihydro-7-ethoxycarbonylmethyloxy[1]benzoxepino[2,3-b]pyridin-5-ylidene)propyl]piperidin-4-ol [Example 48]” showed an IC50 of less than 1 µM. “4-(4-Chlorophenyl)-1-[3-(5,11-dihydro-7-ethyl[1]benzoxepino[2,3-b]pyridin-5-ylidene)propyl]piperidin-4-ol [Example 163]” gave an IC50 of less than 1 µM. “4-(4-Chlorophenyl)-1-[3-(5,11-dihydro-7-hydroxy [1]benzoxepino[2,3-b]pyridin-5-ylidene)propyl]piperidin-4-ol [Example 44]” was tested, and the IC50 was less than 1 µM. With “4-(4-Chlorophenyl)-1-[3-(5,11-dihydro-7-hydroxy[1]benzoxepino[2,3-b]pyridin-5-ylidene)propyl]piperidine [Example 151]” the IC50 was less than 1 µM. “4-(4-Chlorophenyl)-1-[3-(5,11-dihydro-7-isopropoxy[1]benzoxepino[2,3-b]pyridin-5-ylidene)propyl]piperidin-4-ol [Example 47]” showed an IC50 of less than 1 µM. In the case of “4-(4-Chlorophenyl)-1-[3-(5,11-dihydro-7-methoxy[1]benzoxepino[2,3-b]pyridin-5-ylidene)propyl]-1,2,3,6-tetrahydropyridine [Example 194]”, the IC50 is reported as less than 1 µM. “4-(4-Chlorophenyl)-1-[3-(5,11-dihydro-7-methoxy[1]benzoxepino[2,3-b]pyridin-5-ylidene)propyl]piperidin-4-ol [Example 45]” gave an IC50 of less than 1 µM. “4-(4-Chlorophenyl)-1-[3-(5,11-dihydro-7-methoxy[1]benzoxepino[2,3-b]pyridin-5-ylidene)propyl]piperidine [Example 65]” showed an IC50 of less than 1 µM. “4-(4-Chlorophenyl)-1-[3-(5,11-dihydro-7-methylaminocarbonyl[1]benzoxepino[2,3-b]pyridin-5-ylidene)propyl]piperidin-4-ol [Example 268]” showed an IC50 of less than 1 µM.
